Data: US20140187538A1, “LORCASERIN HYDROCHLORIDE” (DR. REDDY'S LABORATORIES LTD., priority 2012, published 2014)

Assay: physical stability of the amorphous solid form (tendency to crystallize over time)
Format: physicochemical
Conditions: solid state; amorphous drug substance alone vs amorphous solid dispersion; crystallization over a period of time

For C[C@H]1CNCCc2ccc(Cl)cc21.Cl [amorphous lorcaserin hydrochloride], which physical stability is on record?
Its physical stability is “limited physical stability”.
